Data: ChEMBL document CHEMBL1201862, “PubChem BioAssay data set” (2004)
Active and inactive are the calls of the source.

Tests used:
[1] = NIH-3T3 fibroblast cytotoxicity, dose response, cytotoxicity control, cell-based, fluorescence, Alamar Blue, secondary assay (AID 2327); assay type: functional;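 further: NIH-3T3 mouse fibroblasts cultured with fluconazole at 8 µg/mL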
[2] = target: Serine/threonine-protein phosphatase PP1-alpha catalytic subunit (Homo sapiens, UniProt P62136); experiment: inhibition of protein phosphatase 1 activity – biochemical, fluorescence, dose response (AID 2403);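 further: phosphatase turnover of OMFP into fluorescent 3-O-methylfluorescein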
[3] = fluconazole-exposed Candida albicans growth modulators – fluorescence, retest, confirmation (AID 2467); assay type: functional, cell-based
[4] = target: Serine/threonine-protein phosphatase (Homo sapiens, UniProt Q9BPW0); experiment: Counterscreen for inhibitors of PP1: fluorescence-based biochemical high throughput dose response assay to identify inhibitors of Protein Phosphatase 5 (PP5). [Related pubchem assays: 2034 (Summary (PP5 inhibitors)), 1987 (PP5 inhibitors in singlate), 2235 (PP1 inhibitors in singlate)]
[5] = Counterscreen for IDE inhibitors: Luminescence-based cell-based high throughput dose response assay to identify compounds that are cytotoxic to HEK cells. [Related pubchem assays: 434962 (Primary screen (IDE inhibitors in singlicate)), 449730 (Counterscreen (Cytotoxicity in triplicate)), 435028 (Confirmation (IDE inhibitors in triplicate)) …; assay type: functional; settings: HEK293
Insulin-degrading enzyme = target: T1, Insulin-degrading enzyme (Homo sapiens, UniProt P14735); experiment: Dose Response: Fluorescence polarization-based cell-based high throughput dose response assay for inhibitors of insulin-degrading enzyme (IDE). [Related pubchem assays: 434962 (Primary screen (IDE inhibitors in singlicate)), 449730 (Counterscreen (Cytotoxicity in triplicate)), 435028 (Confirmation (IDE inhibitors in triplicate)), 434984 (Summary …; assay type: functional
T1 sequence (P14735 whole entry): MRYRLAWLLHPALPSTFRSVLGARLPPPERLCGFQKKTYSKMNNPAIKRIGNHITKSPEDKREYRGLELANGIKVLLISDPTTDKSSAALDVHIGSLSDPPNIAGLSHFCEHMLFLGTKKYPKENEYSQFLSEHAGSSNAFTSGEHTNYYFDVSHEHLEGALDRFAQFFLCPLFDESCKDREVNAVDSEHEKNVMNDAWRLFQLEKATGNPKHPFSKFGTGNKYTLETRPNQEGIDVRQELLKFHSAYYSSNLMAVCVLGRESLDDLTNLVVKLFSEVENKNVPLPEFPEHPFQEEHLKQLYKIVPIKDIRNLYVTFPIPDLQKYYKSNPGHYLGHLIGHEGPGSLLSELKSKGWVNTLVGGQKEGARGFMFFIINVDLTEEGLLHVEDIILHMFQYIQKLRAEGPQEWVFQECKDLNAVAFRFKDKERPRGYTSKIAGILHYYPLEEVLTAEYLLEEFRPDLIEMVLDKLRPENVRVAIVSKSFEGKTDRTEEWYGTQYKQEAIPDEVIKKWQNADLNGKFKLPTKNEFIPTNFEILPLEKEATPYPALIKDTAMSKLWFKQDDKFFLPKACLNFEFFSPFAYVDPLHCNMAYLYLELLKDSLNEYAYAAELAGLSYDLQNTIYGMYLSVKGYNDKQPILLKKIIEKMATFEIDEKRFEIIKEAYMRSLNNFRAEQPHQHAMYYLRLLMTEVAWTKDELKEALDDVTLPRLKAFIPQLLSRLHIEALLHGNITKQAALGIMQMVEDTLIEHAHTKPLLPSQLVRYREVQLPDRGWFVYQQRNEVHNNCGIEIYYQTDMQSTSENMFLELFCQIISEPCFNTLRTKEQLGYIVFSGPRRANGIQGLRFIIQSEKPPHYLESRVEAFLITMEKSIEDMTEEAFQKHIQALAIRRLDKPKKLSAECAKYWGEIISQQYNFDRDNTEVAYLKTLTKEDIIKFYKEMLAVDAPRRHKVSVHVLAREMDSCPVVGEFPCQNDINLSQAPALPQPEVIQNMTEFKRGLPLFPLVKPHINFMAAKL

[6] = target: T2, Alkaline phosphatase, tissue-nonspecific isozyme (Homo sapiens, UniProt P05186)
T2 sequence (P05186 whole entry): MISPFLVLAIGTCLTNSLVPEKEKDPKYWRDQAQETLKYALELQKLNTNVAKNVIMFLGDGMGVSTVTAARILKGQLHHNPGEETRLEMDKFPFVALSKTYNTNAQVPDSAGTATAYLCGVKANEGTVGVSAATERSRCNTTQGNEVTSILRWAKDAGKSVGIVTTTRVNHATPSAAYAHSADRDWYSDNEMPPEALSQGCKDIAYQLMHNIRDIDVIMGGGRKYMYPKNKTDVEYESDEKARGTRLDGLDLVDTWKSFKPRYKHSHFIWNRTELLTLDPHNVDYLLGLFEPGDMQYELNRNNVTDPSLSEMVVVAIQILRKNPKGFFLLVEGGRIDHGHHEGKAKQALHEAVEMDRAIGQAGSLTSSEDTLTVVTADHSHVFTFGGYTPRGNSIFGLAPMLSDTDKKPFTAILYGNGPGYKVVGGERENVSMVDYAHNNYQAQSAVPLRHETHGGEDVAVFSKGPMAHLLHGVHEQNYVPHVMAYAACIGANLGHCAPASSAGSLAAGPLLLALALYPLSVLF

[7] = target: T3, DNA repair protein RAD52 homolog (Homo sapiens, UniProt P43351); assay type: functional, biochemical
T3 sequence (P43351 whole entry): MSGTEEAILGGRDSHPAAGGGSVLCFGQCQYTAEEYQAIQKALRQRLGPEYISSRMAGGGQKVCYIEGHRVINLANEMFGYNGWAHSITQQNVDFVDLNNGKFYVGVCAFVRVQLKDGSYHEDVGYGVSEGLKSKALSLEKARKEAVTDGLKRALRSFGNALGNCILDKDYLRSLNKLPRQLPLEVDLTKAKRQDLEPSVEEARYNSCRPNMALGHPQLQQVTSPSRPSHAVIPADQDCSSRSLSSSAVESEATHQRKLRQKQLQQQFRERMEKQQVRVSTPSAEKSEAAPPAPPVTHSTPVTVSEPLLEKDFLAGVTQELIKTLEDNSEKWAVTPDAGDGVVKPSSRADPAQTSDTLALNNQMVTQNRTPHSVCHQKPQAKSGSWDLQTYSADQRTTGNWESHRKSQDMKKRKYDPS

[8] = target: Neuropeptide Y receptor type 2 (Homo sapiens, UniProt P49146); experiment: Fluorescence-based counterscreen for agonists of NPY-Y1: cell-based high-throughput dose response assay for agonists of NPY-Y2.; assay type: functional
HEK293 = experiment: Fluorescence-based counterscreen for potentiators or agonists of NPY-Y1: cell-based high-throughput dose response assay for inhibitors of cyclic nucleotide gated ion channel (CNGC) activity. In this assay, the parental HEK293 cell line transfected with a cyclic-nucleotide gated ion channel (CNGC)-based cAMP sensor is used to measure inhibition of isoproterenol-induced CNGC …; assay type: functional; settings: Homo sapiens
[9] = target: Neuropeptide Y receptor type 1 (Homo sapiens, UniProt P25929); experiment: Fluorescence-based dose response cell-based high-throughput screening assay for agonists of NPY-Y1. [Related pubchem assays: 1697 (Screening assay (NPY-Y1 agonists).), 1359 (Screening assay (NPY-Y2 potentiators or agonists).), 1304 (Screening assay (NPY-Y1 potentiators or agonists).), 1704 (Screening assay (CNGC inhibitors).), 1791 (Summary AID.)]; assay type: functional
[10] = target: Melanin-concentrating hormone receptor 1 (Homo sapiens, UniProt Q99705); experiment: Fluorescence-based counterscreen for antagonists of the G-protein coupled receptor 7 (GPR7): cell-based high throughput dose response assay to identify antagonists of the melanin-concentrating hormone receptor 1 (MCHR1).; assay type: functional
[11] = A Cell Based Secondary Assay To Explore Cytotoxicity of Compounds that Sensitize Mycobacterium Tuberculosis to Beta-Lactam Antibiotics.; assay type: functional

Chain of Neuropeptide Y receptor type 1 (P25929 whole entry): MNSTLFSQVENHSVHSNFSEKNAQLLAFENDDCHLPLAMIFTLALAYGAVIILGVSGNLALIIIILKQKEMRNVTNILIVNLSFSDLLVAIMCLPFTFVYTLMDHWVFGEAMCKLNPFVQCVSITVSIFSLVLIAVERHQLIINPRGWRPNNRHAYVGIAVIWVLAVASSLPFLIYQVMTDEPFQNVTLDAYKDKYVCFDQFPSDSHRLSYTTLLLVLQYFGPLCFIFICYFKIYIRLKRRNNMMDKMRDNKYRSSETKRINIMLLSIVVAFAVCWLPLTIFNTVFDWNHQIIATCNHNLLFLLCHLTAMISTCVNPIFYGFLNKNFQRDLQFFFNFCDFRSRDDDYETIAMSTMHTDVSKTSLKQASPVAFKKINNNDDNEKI
Chain of Serine/threonine-protein phosphatase (Q9BPW0 whole entry): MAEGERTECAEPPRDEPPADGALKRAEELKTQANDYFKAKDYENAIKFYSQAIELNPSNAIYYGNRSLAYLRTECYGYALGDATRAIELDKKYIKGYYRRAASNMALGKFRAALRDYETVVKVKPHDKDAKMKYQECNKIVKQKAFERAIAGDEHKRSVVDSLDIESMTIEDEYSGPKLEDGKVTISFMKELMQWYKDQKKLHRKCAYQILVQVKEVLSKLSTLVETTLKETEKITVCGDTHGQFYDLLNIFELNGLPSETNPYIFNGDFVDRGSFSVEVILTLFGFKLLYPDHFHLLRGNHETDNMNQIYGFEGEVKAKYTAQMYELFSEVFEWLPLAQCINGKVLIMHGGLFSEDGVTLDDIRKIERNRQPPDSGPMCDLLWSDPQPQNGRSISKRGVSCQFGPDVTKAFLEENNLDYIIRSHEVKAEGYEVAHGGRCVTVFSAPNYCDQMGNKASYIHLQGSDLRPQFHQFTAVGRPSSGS
Chain of Melanin-concentrating hormone receptor 1 (Q99705 whole entry): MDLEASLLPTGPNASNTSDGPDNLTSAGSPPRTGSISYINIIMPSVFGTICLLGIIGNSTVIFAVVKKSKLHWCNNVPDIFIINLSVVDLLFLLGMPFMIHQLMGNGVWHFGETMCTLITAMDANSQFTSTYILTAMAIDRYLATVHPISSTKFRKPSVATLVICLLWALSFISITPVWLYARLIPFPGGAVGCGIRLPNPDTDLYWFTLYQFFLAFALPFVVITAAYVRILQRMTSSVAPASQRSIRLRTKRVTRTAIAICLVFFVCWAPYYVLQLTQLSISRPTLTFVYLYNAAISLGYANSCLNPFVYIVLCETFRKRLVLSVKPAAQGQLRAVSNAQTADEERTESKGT
Chain of Serine/threonine-protein phosphatase PP1-alpha catalytic subunit (P62136 whole entry): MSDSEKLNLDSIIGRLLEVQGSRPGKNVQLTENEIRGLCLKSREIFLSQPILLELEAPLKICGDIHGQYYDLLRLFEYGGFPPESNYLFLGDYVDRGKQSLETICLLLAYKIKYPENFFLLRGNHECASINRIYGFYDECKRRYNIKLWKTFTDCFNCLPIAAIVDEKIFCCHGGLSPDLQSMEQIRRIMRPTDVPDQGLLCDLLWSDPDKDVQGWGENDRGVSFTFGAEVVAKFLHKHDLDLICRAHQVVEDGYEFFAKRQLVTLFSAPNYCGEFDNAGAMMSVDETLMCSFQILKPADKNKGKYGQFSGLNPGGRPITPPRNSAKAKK
Chain of Neuropeptide Y receptor type 2 (P49146 whole entry): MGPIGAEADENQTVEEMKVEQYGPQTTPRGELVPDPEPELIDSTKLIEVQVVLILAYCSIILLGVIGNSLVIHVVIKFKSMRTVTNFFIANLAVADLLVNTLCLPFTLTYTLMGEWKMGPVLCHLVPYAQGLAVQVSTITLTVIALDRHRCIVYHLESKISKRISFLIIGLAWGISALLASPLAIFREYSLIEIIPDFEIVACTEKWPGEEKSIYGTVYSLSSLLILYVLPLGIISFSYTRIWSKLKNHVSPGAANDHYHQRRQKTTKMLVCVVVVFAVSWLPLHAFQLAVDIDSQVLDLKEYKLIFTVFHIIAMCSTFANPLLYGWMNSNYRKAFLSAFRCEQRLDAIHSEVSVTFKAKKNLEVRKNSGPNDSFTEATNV

## COc1cnc(-c2ccccn2)nc1Sc1cccc(Cl)c1
[1]
  EC50: > 160 µM (inactive)
[2]
  IC50: 4.75 µM (active)
[3]
  EC50: > 38 µM (not active)
[4]
  IC50: > 67 µM (not active)

## CCCCCN(C(=O)CCC(=O)OCC(=O)c1ccc(CCC)cc1)c1c(N)n(CCCC)c(=O)[nH]c1=O
[5]
  IC50: 39.1 µM (not active)
Insulin-degrading enzyme
  IC50: 10.6 µM (not active)

## CN(C)CCCN(C(=O)c1ccco1)c1nc2ccc(Br)cc2s1
[6]
  EC50: > 100 µM (not active)
[7]
  AC50: 14.1 µM (active)

## COc1ccc(Nc2oc(/C=C3/SC(=S)N(CC4CCCO4)C3=O)nc2C#N)cc1 (stereo not drawn)
[8]
  EC50: 12.8 µM (not active)
HEK293
  IC50: 11.8 µM (not active)
[9]
  EC50: 13.5 µM (not active)

## CCC(C)CCN1C(Nc2ccccc2)=NC[C@@H]1Cc1ccccc1 (stereo partly drawn)
[10]
  IC50: 12.5 µM (not active)

## O=S(=O)(Nc1cccc(-c2ccc(N3CCCCCC3)nn2)c1)c1ccccc1Cl
[11]
  CC50: > 40 µM (active)
